pIC50: −log10 of the molar value. Square brackets hold non-standard residues; d marks the D form. Peptide text beside a SMILES is read from it. Cha = N[C@@H](CC1CCCCC1)C(=O)O
Key:
[1] = target: T1, Atrial natriuretic peptide receptor 1 (Homo sapiens, UniProt P16066); assay: Displacement of [125I]-human ANP from human NPR-1 incubated for 2 hrs by top count method
T1 sequence (P16066 whole entry): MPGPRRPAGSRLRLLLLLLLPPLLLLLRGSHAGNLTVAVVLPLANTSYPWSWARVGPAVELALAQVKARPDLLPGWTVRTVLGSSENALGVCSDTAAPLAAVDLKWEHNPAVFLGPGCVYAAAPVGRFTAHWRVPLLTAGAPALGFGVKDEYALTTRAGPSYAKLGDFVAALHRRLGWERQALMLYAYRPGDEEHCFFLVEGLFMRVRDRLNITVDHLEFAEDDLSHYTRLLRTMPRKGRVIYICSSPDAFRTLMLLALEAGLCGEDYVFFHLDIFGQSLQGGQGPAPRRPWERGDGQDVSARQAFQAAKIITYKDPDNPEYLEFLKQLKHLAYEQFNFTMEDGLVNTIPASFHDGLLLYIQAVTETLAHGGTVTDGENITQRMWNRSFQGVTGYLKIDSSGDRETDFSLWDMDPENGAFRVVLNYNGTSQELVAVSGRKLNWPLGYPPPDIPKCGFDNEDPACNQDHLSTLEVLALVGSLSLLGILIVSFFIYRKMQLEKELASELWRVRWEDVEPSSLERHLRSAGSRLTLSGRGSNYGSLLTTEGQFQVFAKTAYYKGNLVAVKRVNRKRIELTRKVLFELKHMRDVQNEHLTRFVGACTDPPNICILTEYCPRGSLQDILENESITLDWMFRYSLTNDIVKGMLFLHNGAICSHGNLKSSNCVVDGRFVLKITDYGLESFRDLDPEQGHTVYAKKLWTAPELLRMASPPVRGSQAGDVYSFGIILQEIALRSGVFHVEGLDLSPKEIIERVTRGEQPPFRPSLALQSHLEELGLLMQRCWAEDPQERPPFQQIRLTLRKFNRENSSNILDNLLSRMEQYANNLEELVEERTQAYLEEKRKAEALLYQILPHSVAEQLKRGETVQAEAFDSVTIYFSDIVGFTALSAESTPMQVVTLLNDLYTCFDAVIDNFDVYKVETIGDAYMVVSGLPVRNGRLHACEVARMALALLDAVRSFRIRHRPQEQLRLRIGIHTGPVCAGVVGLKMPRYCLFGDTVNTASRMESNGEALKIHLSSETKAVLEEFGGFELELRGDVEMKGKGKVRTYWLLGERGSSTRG

[2] = target: T2, Atrial natriuretic peptide receptor 3 (Homo sapiens, UniProt P17342); assay: Displacement of [125I]-human ANP from His-tagged and Fc fragment containing human NPR-3 extracellular domain expressed in FreeStyle 293 cells incubated for 2 hrs by top count method; format: cell-based
T2 sequence (P17342 whole entry): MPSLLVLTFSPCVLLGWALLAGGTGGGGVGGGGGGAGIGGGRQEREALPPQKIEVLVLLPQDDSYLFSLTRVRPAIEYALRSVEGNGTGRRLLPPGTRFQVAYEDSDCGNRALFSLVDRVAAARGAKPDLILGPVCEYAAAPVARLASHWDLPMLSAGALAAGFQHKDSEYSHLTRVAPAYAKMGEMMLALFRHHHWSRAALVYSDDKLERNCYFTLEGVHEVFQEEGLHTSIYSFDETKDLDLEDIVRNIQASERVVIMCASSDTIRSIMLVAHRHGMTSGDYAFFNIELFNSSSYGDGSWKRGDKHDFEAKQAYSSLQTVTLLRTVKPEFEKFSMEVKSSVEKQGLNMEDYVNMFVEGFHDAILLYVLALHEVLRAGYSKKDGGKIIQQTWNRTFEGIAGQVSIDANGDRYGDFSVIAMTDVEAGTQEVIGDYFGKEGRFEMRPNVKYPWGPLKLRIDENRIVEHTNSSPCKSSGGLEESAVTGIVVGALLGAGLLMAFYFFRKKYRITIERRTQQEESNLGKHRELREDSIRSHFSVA

[3] = Stability in 10% C57BL/6J mouse serum/phosphate-buffered saline assessed as residual parent compound remaining at 1 mM after 30 mins at 37 degC by HPLC method; format: ADME, cell-free; conditions: 10% mouse serum in phosphate-buffered saline, read-out: Stability
[4] = Stability in 10% C57BL/6J mouse serum/phosphate-buffered saline assessed as residual parent compound remaining at 1 mM after 60 mins at 37 degC by HPLC method; format: ADME, cell-free; conditions: 10% mouse serum in phosphate-buffered saline, read-out: Stability

Compound	pIC50 [1]	pIC50 [2]	remaining at 0.5 h, 1000 µM [3] [%]	remaining at 1 h, 1000 µM [4] [%]
CC[C@H](C)[C@H](NC(=O)[C@H](CCCNC(=N)N)NC(=O)[C@H](CC(=O)O)NC(=O)[C@@H](NC(=O)[C@H](CCCNC(=N)N)NC(=O)CNC(=O)CNC(=O)[C@H](CC1CCCCC1)NC(=O)[C@H](C)N)[C@@H](C)CC)C(=O)NCC(N)=O (H-A[Cha]GGRIDRIG-NH2)	< 6.00	7.89		
CC[C@H](C)[C@H](NC(=O)[C@H](CCCNC(=N)N)NC(=O)[C@H](CC(=O)O)NC(=O)[C@@H](NC(=O)[C@H](CCCNC(=N)N)NC(=O)CNC(=O)CNC(=O)[C@H](CC1CCCCC1)NC(=O)[C@H]1CCCN1C(=O)[C@H](CO)NC(=O)[C@H](N)Cc1ccccc1)[C@@H](C)CC)C(=O)NCC(N)=O	< 6.00	9.89	80	63
CC[C@H](C)[C@H](NC(=O)[C@H](CCCNC(=N)N)NC(=O)[C@H](CC(=O)O)NC(=O)[C@@H](NC(=O)[C@H](CCCNC(=N)N)NC(=O)CNC(=O)CNC(=O)[C@H](Cc1ccccc1)NC(=O)[C@H](CS)NC(=O)[C@H](CO)NC(=O)[C@H](CO)NC(=O)[C@@H](N)CCCNC(=N)N)[C@@H](C)CC)C(=O)NCC(=O)N[C@@H](C)C(=O)N[C@@H](CS)C(=O)O (H-RSSCFGGRIDRIGAC-OH)		9.19		
CC[C@H](C)[C@H](NC(=O)[C@H](CCCNC(=N)N)NC(=O)[C@H](CC(=O)O)NC(=O)[C@@H](NC(=O)[C@H](CCCNC(=N)N)NC(=O)CNC(=O)CNC(=O)[C@H](CC1CCCCC1)NC(C)=O)[C@@H](C)CC)C(=O)NCC(N)=O (Ac-[Cha]GGRIDRIG-NH2)	< 6.00	7.27		
CC[C@H](C)[C@H](NC(=O)[C@H](CCCNC(=N)N)NC(=O)[C@H](CC(=O)O)NC(=O)[C@@H](NC(=O)[C@H](CCCNC(=N)N)NC(=O)CNC(=O)[C@@H](C)NC(=O)[C@H](CC1CCCCC1)NC(=O)CNC(=O)[C@H](CO)NC(=O)[C@H](N)Cc1ccccc1)[C@@H](C)CC)C(=O)NCC(N)=O	< 6.00	9.44		
CC[C@H](C)[C@H](NC(=O)[C@H](CCCNC(=N)N)NC(=O)[C@H](CC(=O)O)NC(=O)[C@@H](NC(=O)[C@H](CCCNC(=N)N)NC(=O)CNC(=O)CNC(=O)[C@@H](N)CC1CCCCC1)[C@@H](C)CC)C(=O)NCC(N)=O (H-[Cha]GGRIDRIG-NH2)	< 6.00	7.96		
CC[C@H](C)[C@H](NC(=O)[C@H](CCCNC(=N)N)NC(=O)[C@H](CC(=O)O)NC(=O)[C@@H](NC(=O)[C@@H]1CCCN1C(=O)CNC(=O)CNC(=O)[C@H](CC1CCCCC1)NC(=O)CNC(=O)[C@H](CO)NC(=O)[C@H](N)Cc1ccccc1)[C@@H](C)CC)C(=O)NCC(N)=O	< 6.00	9.92		
CC[C@H](C)[C@H](NC(=O)[C@H](CCCNC(=N)N)NC(=O)[C@H](CC(=O)O)NC(=O)[C@@H](NC(=O)[C@H](CCCNC(=N)N)NC(=O)CNC(=O)CNC(=O)[C@H](CC1CCCCC1)NC(=O)[C@@H](N)CO)[C@@H](C)CC)C(=O)NCC(N)=O (H-S[Cha]GGRIDRIG-NH2)	< 6.00	7.82		
CC[C@H](C)[C@H](NC(=O)[C@H](CCCNC(=N)N)NC(=O)[C@H](CC(=O)O)NC(=O)[C@@H](NC(=O)[C@H](CCCNC(=N)N)NC(=O)CNC(=O)CNC(=O)[C@H](CC1CCCCC1)NC(=O)CNC(=O)[C@H](CO)NC(=O)[C@@H](Cc1ccccc1)NC(C)=O)[C@@H](C)CC)C(=O)NCC(N)=O	< 6.00	9.03		
CC[C@H](C)[C@H](NC(=O)[C@H](CCCNC(=N)N)NC(=O)[C@H](CC(=O)O)NC(=O)[C@@H](NC(=O)[C@H](CCCNC(=N)N)NC(=O)CNC(=O)CNC(=O)[C@H](CC1CCCCC1)NC(=O)CN)[C@@H](C)CC)C(=O)NCC(N)=O (H-G[Cha]GGRIDRIG-NH2)	< 6.00	7.89		
CC[C@H](C)[C@H](NC(=O)[C@H](CCCNC(=N)N)NC(=O)[C@H](CC(=O)O)NC(=O)[C@@H](NC(=O)[C@H](CCCNC(=N)N)NC(=O)CNC(=O)CNC(=O)[C@H](CC1CCCCC1)NC(=O)[C@H](CS)NC(C)=O)[C@@H](C)CC)C(=O)NCC(N)=O (Ac-C[Cha]GGRIDRIG-NH2)	< 6.00	7.46		
CC[C@H](C)[C@H](NC(=O)[C@H](CCCNC(=N)N)NC(=O)[C@H](CC(=O)O)NC(=O)[C@@H](NC(=O)[C@H](CCCNC(=N)N)NC(=O)CNC(=O)CNC(=O)[C@H](CC1CCCCC1)NC(=O)CNC(=O)[C@H](CO)NC(=O)[C@H](N)Cc1ccccc1)[C@@H](C)CC)C(=O)NCC(N)=O	< 6.00	9.92	100	80
CC[C@H](C)[C@H](NC(=O)[C@H](CCCNC(=N)N)NC(=O)[C@H](CC(=O)O)NC(=O)[C@@H](NC(=O)[C@@H]1CCCN1C(=O)CNC(=O)[C@@H](C)NC(=O)[C@H](CC1CCCCC1)NC(=O)[C@H]1CCCN1C(=O)[C@H](CO)NC(=O)[C@@H](Cc1ccccc1)NC(C)=O)[C@@H](C)CC)C(=O)NCC(N)=O	< 6.00	9.72		
CC[C@H](C)[C@H](NC(=O)[C@H](CCCNC(=N)N)NC(=O)[C@H](CC(=O)O)NC(=O)[C@@H](NC(=O)[C@H](CCCNC(=N)N)NC(=O)CNC(=O)CNC(=O)[C@H](CC1CCCCC1)NC(=O)CNC(=O)[C@@H](N)CO)[C@@H](C)CC)C(=O)NCC(N)=O (H-SG[Cha]GGRIDRIG-NH2)	< 6.00	7.66		
CC[C@H](C)[C@H](NC(=O)[C@H](CCCNC(=N)N)NC(=O)[C@H](CC(=O)O)NC(=O)[C@@H](NC(=O)[C@H](CCCNC(=N)N)NC(=O)CNC(=O)CNC(=O)[C@H](CC1CCCCC1)NC(=O)CNC(=O)[C@H](CO)NC(=O)[C@H](CO)NC(=O)[C@@H](N)CCCNC(=N)N)[C@@H](C)CC)C(=O)NCC(N)=O (H-RSSG[Cha]GGRIDRIG-NH2)	< 6.00	8.11		
CC[C@H](C)[C@H](NC(=O)[C@H](CCCNC(=N)N)NC(=O)[C@H](CC(=O)O)NC(=O)[C@@H](NC(=O)[C@H](CCCNC(=N)N)NC(=O)CNC(=O)CNC(=O)[C@H](CC1CCCCC1)NC(=O)CNC(=O)[C@H](CO)NC(=O)[C@H](Cc1ccccc1)NC(=O)[C@@H](N)CO)[C@@H](C)CC)C(=O)NCC(N)=O (H-SFSG[Cha]GGRIDRIG-NH2)	< 6.00	9.28		
CC[C@H](C)[C@H](NC(=O)[C@H](CCCNC(=N)N)NC(=O)[C@H](CC(=O)O)NC(=O)[C@@H](NC(=O)[C@H](CCCNC(=N)N)NC(=O)CNC(=O)CNC(=O)[C@H](CC1CCCCC1)NC(=O)[C@@H](N)CS)[C@@H](C)CC)C(=O)NCC(N)=O (H-C[Cha]GGRIDRIG-NH2)	6.92	8.82		
CC[C@H](C)[C@@H]1NC(=O)[C@H](CCCNC(=N)N)NC(=O)[C@H](CC(=O)O)NC(=O)[C@H](CCSC)NC(=O)[C@H](CCCNC(=N)N)NC(=O)CNC(=O)CNC(=O)[C@H](Cc2ccccc2)NC(=O)[C@@H](NC(=O)[C@H](CO)NC(=O)[C@H](CO)NC(=O)[C@H](CCCNC(=N)N)NC(=O)[C@H](CCCNC(=N)N)NC(=O)[C@H](CC(C)C)NC(=O)[C@@H](N)CO)CSSC[C@@H](C(=O)N[C@@H](CC(N)=O)C(=O)N[C@@H](CO)C(=O)N[C@@H](Cc2ccccc2)C(=O)N[C@@H](CCCNC(=N)N)C(=O)N[C@@H](Cc2ccc(O)cc2)C(=O)O)NCC(=O)NC(=O)[C@H](CC(C)C)NC(=O)CNC(=O)[C@H](CO)NC(=O)[C@H](CCC(N)=O)NC(=O)[C@H](C)NC(=O)CNC1=O	10.03	10.24		

From ChEMBL document CHEMBL4033735, “A potent and selective natriuretic peptide receptor-3 blocker 11-mer peptide created by hybridization of musclin and atrial natriuretic peptide” (Bioorg Med Chem Lett, 2017)
